Test results: article PMC3353862
Converted amounts (≈) assume the structure as drawn.

Tests used:
[1] = system: S. aureus; experiment: Broth microdilution MIC testing; assay type: cell-based, Staphylococcus aureus; settings: S. aureus
[2] = system: E. faecalis; experiment: Broth microdilution MIC testing; assay type: cell-based, Enterococcus faecalis; settings: E. faecalis
[3] = system: E. coli modified with PMBN; experiment: Broth microdilution MIC testing; assay type: cell-based, Escherichia coli; settings: E. coli modified with PMBN
[4] = system: M. catarrhalis; experiment: Broth microdilution MIC testing; assay type: cell-based, Moraxella catarrhalis
[5] = system: bacterial protein synthesis (aminoacylation/translation system); experiment: aminoacylation/translation (A/T) assay; assay type: biochemical; settings: A/T assay, Table 1; read-out: IC50
[6] = system: E. coli tolC mutants; experiment: Broth microdilution MIC testing; assay type: cell-based, Escherichia coli; settings: E. coli tolC mutants
[7] = system: H. influenzae; experiment: Broth microdilution MIC testing; assay type: cell-based, Haemophilus influenzae; settings: H. influenzae
[8] = system: S. pneumoniae; experiment: Broth microdilution MIC testing; assay type: cell-based, Streptococcus pneumoniae; settings: S. pneumoniae

SMILES	MIC S. aureus [1] [mg/L]	MIC E. fae [2] [mg/L]	MIC E. coli +PMBP [3] [mg/L]	MIC M. cat [4] [mg/L]	IC50 [5] [µM]	MIC E. coli tolC [6] [mg/L]	MIC H. flu [7] [mg/L]	MIC S. pneumo [8] [mg/L]
COc1cc(Cl)cc(CN2CCc3nc(-c4ccccn4)[nH]c(=O)c3C2)c1OC [Compound 323203]	16 (≈ 38.8 µM)	64 (≈ 155 µM)	16 (≈ 38.8 µM)	1 (≈ 2.42 µM)	2	8 (≈ 19.4 µM)	8 (≈ 19.4 µM)	4 (≈ 9.69 µM)
Cc1cc(CN2CCc3nc(-c4ccccn4)[nH]c(=O)c3C2)cc(C)c1O [Compound 323204]	> 128	> 128	> 128	64 (≈ 177 µM)	2.1	> 128	32 (≈ 88.3 µM)	128 (≈ 353 µM)
COc1cc(CN2CCc3nc(-c4ccccn4)[nH]c(=O)c3C2)cc2c1OCO2 [Compound 323205]	> 128	128 (≈ 326 µM)	64 (≈ 163 µM)	4 (≈ 10.2 µM)	> 300	64 (≈ 163 µM)	16 (≈ 40.8 µM)	32 (≈ 81.5 µM)
CN(C)Cc1cc(CN2CCc3nc(-c4ccccn4)[nH]c(=O)c3C2)ccc1O [Compound 323206]	> 128	> 128	> 128	> 128	> 300	> 128	> 128	> 128
Cc1cc2c(cc1CN1CCc3nc(-c4ccccn4)[nH]c(=O)c3C1)OCO2 [Compound 323207]	> 128	> 128	> 128	> 128	> 300	> 128	> 128	> 128
CCOCc1cc(CN2CCc3nc(-c4ccccn4)[nH]c(=O)c3C2)ccc1OC [Compound 323208]	> 128	> 128	64 (≈ 157 µM)	4 (≈ 9.84 µM)	2.7	64 (≈ 157 µM)	64 (≈ 157 µM)	32 (≈ 78.7 µM)
COc1cc(C)c(CN2CCc3nc(-c4ccccn4)[nH]c(=O)c3C2)cc1OC [Compound 323209]	> 128	> 128	64 (≈ 163 µM)	4 (≈ 10.2 µM)	1.5	64 (≈ 163 µM)	64 (≈ 163 µM)	32 (≈ 81.5 µM)
O=C(COc1ccc(CN2CCc3nc(-c4ccccn4)[nH]c(=O)c3C2)cc1)N1CCCC1 [Compound 323210]	> 128	> 128	> 128	> 128	3.2	> 128	> 128	> 128
O=C1CCCN1c1ccc(CN2CCc3nc(-c4ccccn4)[nH]c(=O)c3C2)cc1 [Compound 323211]	> 128	> 128	> 128	64 (≈ 159 µM)	1.6	> 128	> 128	> 128
Cn1c(=O)n(C)c2cc(CN3CCc4nc(-c5ccccn5)[nH]c(=O)c4C3)ccc21 [Compound 323213]	> 128	> 128	> 128	> 128	2.4	> 128	> 128	> 128
COc1cc(CN2CCc3nc(-c4ccccn4)[nH]c(=O)c3C2)ccc1OCCO [Compound 323214]	> 128	> 128	> 128	> 128	> 300	> 128	> 128	> 128
COc1cc(CN2CCc3nc(-c4ccccn4)[nH]c(=O)c3C2)ccc1O [Compound 323215]	> 128	> 128	> 128	128 (≈ 351 µM)	2.1	> 128	64 (≈ 176 µM)	> 128
O=c1[nH]c(-c2ccccn2)nc2c1CN(Cc1ccc(Cl)cc1)CC2 [Compound 323216]	16 (≈ 45.3 µM)	32 (≈ 90.7 µM)	8 (≈ 22.7 µM)	≤0.12	1.1	8 (≈ 22.7 µM)	2 (≈ 5.67 µM)	4 (≈ 11.3 µM)
COc1ccc(CN2CCc3nc(-c4ccccn4)[nH]c(=O)c3C2)cc1O [Compound 323217]	> 128	> 128	> 128	32 (≈ 87.8 µM)	4.8	> 128	32 (≈ 87.8 µM)	> 128
O=c1[nH]c(-c2ccccn2)nc2c1CN(Cc1ccccc1Cl)CC2 [Compound 323219]	16 (≈ 45.3 µM)	32 (≈ 90.7 µM)	16 (≈ 45.3 µM)	≤0.12	3	8 (≈ 22.7 µM)	4 (≈ 11.3 µM)	4 (≈ 11.3 µM)
O=c1[nH]c(-c2ccccn2)nc2c1CN(Cc1cccc(Cl)c1)CC2 [Compound 323220]	16 (≈ 45.3 µM)	32 (≈ 90.7 µM)	8 (≈ 22.7 µM)	≤0.12	2.1	8 (≈ 22.7 µM)	2 (≈ 5.67 µM)	4 (≈ 11.3 µM)
CC(=O)Nc1ccc(CN2CCc3nc(-c4ccccn4)[nH]c(=O)c3C2)cc1 [Compound 323222]	> 128	> 128	> 128	> 128	> 300	> 128	> 128	> 128
COc1cccc(CN2CCc3nc(-c4ccccn4)[nH]c(=O)c3C2)c1OC [Compound 323223]	> 128	> 128	64 (≈ 169 µM)	4 (≈ 10.6 µM)	14.7	128 (≈ 338 µM)	32 (≈ 84.6 µM)	32 (≈ 84.6 µM)
COc1cc(OC)c(OC)cc1CN1CCc2nc(-c3ccccn3)[nH]c(=O)c2C1 [Compound 323226]	> 128	> 128	> 128	64 (≈ 157 µM)	8	> 128	> 128	> 128
O=c1[nH]c(-c2ccccn2)nc2c1CN(Cc1cc(F)cc(F)c1)CC2 [Compound 323230]	32 (≈ 90.3 µM)	32 (≈ 90.3 µM)	16 (≈ 45.2 µM)	0.5 (≈ 1.41 µM)	2	16 (≈ 45.2 µM)	8 (≈ 22.6 µM)	8 (≈ 22.6 µM)
